Data on 8 compounds can be found in patent US20110183978A1, “Phenylpyri(mi)dinylazoles” (Bayer CropScience AG, priority 2009, published 2011).

Read-outs that look alike come from different tables or passages of the source.

For data set [1], the system named is Sphaerotheca fuliginea. In words: Example D: in vivo test on Sphaerotheca fuliginea (powdery mildew on cucumber). As to conditions: Podosphaera fuliginea, 288 h, cucumber plants sprayed 24 hours before inoculation, scored after 12 days, read-out: % Wirkungsgrad. The gist of the method:
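Cucumber plants at cotyledon stage Z10 were sprayed with the compound suspended in acetone/Tween/DMSO diluted with water. After 24 hours they were inoculated with Sphaerotheca fuliginea spores (100,000/ml) and incubated at ca. 20/25° C. and 60/70% RH. Disease was scored after 12 days against untreated sprayed controls.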

In data set [2] the test system is Mycosphaerella graminicola. Nature of the data set: Example G: in vivo test on Mycosphaerella graminicola (wheat leaf blotch disease). To be noted: Zymoseptoria tritici, wheat plants sprayed 24 hours before inoculation, scored after 21 to 28 days, read-out: % Wirkungsgrad. The procedure:
In Vivo Test on Mycosphaerella Graminicola (Wheat Leaf Blotch Disease) An aqueous suspension of the active substance was prepared by homogenization of a mixture of acetone/Tween/dimethyl sulphoxide and subsequent dilution with water to the desired concentration. Wheat plants (variety: Scipion) are sown in cultivation dishes on a peat-pozzolanic earth substrate (50/50) at 12° C. and sprayed at the first-leaf stage (10 cm size) with the aqueous suspension described above. As a control, plants are sprayed with an aqueous solution with no active substance. After 24 hours the plants are inoculated by spraying with an aqueous suspension of Mycosphaerella graminicola spores (500,000 spores per ml). The spores are derived from a 7 day-old culture. […] After 21 to 28 days they are scored in comparison with the control plants.

For data set [3], the system named is Botrytis cinerea. Nature of the data set: Example B: in vivo test on Botrytis cinerea (grey mould on cucumbers). As to conditions: cucumber plants sprayed 24 hours before inoculation, scored after 5-7 days, read-out: % Wirkungsgrad. As for the experimental part:
In Vivo Test on Botrytis Cinerea (Grey Mould on Cucumbers) An aqueous suspension of the active substance was prepared by homogenization of a mixture of acetone/Tween/dimethyl sulphoxide and subsequent dilution with water to the desired concentration. Cucumber plants (variety: Vert petit de Paris) are sown in cultivation dishes on a peat-pozzolanic earth substrate (50/50) at 18-20° C. and sprayed at the cotyledon stage Z11 with the aqueous suspension described above. As a control, plants are sprayed with an aqueous solution with no active substance. […] The spores are derived from a 15 day-old culture which are suspended in the following nutrient solution: • 20 g/l gelatine • 50 g/l D-fructose • 2 g/l NH4NO3 • 1 g/l KH2PO4 The inoculated cucumber plants are kept for 5-7 days in a climatic chamber at […] After 5-7 days they are scored in comparison with the control plants.

The subject of the next data set is Leptosphaeria nodorum. In words: Example Q: in vivo test on Leptosphaeria nodorum (glume blotch in wheat/protective). As to conditions: Parastagonospora nodorum, 192 h, wheat, protective, assessment 8 days after inoculation, read-out: % Wirkungsgrad. The procedure:
(§1) Solvent: 49 parts by weight N,N-dimethylacetamide Emulsifier: 1 part by weight alkylaryl polyglycol ethers For the preparation of a suitable active substance preparation, 1 part by weight of active substance is mixed with the stated quantities of solvent and emulsifier and the concentrate is diluted to the desired concentration with water. For the testing for protective activity, young plants are sprayed with the active substance preparation at the stated application dosage. After drying of the spray coating, the plants are sprayed with spores with a spore suspension of Leptosphaeria nodorum. […] 8 days after the inoculation, the assessment takes place.

The test system of another data set is Septoria tritici. Nature of the data set: Example R: in vivo test on Septoria tritici (leaf blotch in wheat/protective). To be noted: Zymoseptoria tritici, 504 h, wheat, protective, 1000 ppm active substance, assessed 21 days after inoculation, read-out: % Wirkungsgrad (activity level). As for the experimental part: as §1, with “with” for “with spores with”, “Septoria tritici.” for “Leptosphaeria nodorum.”, “21” for “8”

The subject of data set [4] is Fusarium nivale (var. majus). Nature of the data set: whole plant or invertebrate. In kind it is in vivo. As to conditions: Microdochium nivale, in Triticum aestivum, 120 h, read-out: % Wirkungsgrad (activity level).
In data set [5] the test system is Fusarium graminearum. Nature of the data set: microbe, parasite or virus in culture. In kind it is cell-based.
The subject of another data set is Fusarium proliferatum. Nature of the data set: Example I: production of fumonisin FB1 by Fusarium proliferatum (microtitre plates). The data set is classed as cell-based. To be noted: 120 h.
Another data set has as its system Venturia inaequalis. In words: Example O: in vivo test on Venturia inaequalis (apple scab/protective). To be noted: 240 h, protective, assessment 10 days after inoculation, read-out: % Wirkungsgrad. In outline: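 Protective test: active substance mixed with solvent and alkylaryl polyglycol ether emulsifier, diluted with water, and sprayed on young plants at the stated dosage before Venturia inaequalis inoculation. Scab assessed 10 days after inoculation.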

For data set [6], the system named is Sphaerotheca fuliginea. Nature of the data set: Example L: in vivo test on Sphaerotheca fuliginea (powdery mildew on cucumber/protective). As to conditions: Podosphaera fuliginea, 168 h, cucumber, protective, assessment 7 days after inoculation, read-out: % Wirkungsgrad. The gist of the method: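 Young cucumber plants sprayed at stated dosage with compound in DMF/alkylaryl polyglycol ether emulsifier diluted in water; inoculated with S. fuliginea spores one day later. Kept in greenhouse at 70% relative humidity, 23° C; protective activity assessed 7 days after inoculation.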

A further data set has as its system Alternaria solani. In words: Example M: in vivo test on Alternaria solani (leaf blotch disease/tomato/protective). To be noted: 168 h, tomato, protective, 500 ppm active substance, assessed 7 days after inoculation, read-out: % Wirkungsgrad (activity level). In outline: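 Protective test: young tomato plants sprayed with active substance (in DMF with alkylaryl polyglycol ether emulsifier, diluted in water) at the stated dosage, then inoculated with Alternaria solani. Disease assessed 7 days after inoculation.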

In another data set the test system is Rhynchosporium secalis. Nature of the data set: Example S: in vivo test on Rhynchosporium secalis (leaf scald in barley/protective). As to conditions: 336 h, barley, protective, 1000 ppm active substance, assessed 14 days after inoculation, read-out: % Wirkungsgrad (activity level). The procedure:
as §1, with “Rhynchosporium secalis.” for “Leptosphaeria nodorum.”, “14” for “8”

The test system of data set [7] is Fusarium graminearum. Nature of the data set: whole plant or invertebrate. The data set is classed as in vivo. As to conditions: in Hordeum vulgare, 120 h, read-out: % Wirkungsgrad (activity level).
The subject of data set [8] is Botrytis cinerea. In words: Example P: in vivo test on Botrytis cinerea (gray mould on bean/protective). To be noted: 48 h, bean, protective, 250 ppm active substance, assessed 2 days after inoculation, read-out: % Wirkungsgrad (activity level). In outline:
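Protective test: young bean plants sprayed with the active substance preparation (emulsifier-based concentrate diluted in water) at the stated dosage. Once dry, each leaf received 2 agar pieces bearing Botrytis cinerea. Infection blotch size assessed 2 days after inoculation.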

The next data set concerns Plasmopara viticola. In words: Example N: in vivo test on Plasmopara viticola (downy mildew, vine/protective). As to conditions: 144 h, vine, protective, assessment 6 days after inoculation, read-out: % Wirkungsgrad. In outline:
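Protective test: young vine plants were sprayed with active substance diluted in water from a solvent/alkylaryl polyglycol ether emulsifier concentrate at the stated dosage, then inoculated with P. viticola. Plants were moistened and kept 1 day in an incubation cabin, and assessed 6 days after inoculation.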

[9] abbreviates: LogPA (logP of the stated pure compound or, in a mixture, of the main isomer, 1-substituted 3-aryl-1H-pyrazole).
[10] abbreviates: 72 h, read-out: % Inhibition des Pilzwachstums bei 50 μM.
The mark [11] stands for this setting: 168 h, read-out: % Inhibition der DON/AcDON produktion bei 50 μM.
Where [12] appears, read: Fusarium proliferatum growth, OD 620, 5 days, read-out: % Inhibition des Pilzwachstums bei 50 μM.
The mark [13] stands for this setting: Fusarium proliferatum, 5 days at 20° C., HPLC-MS/MS, read-out: % Inhibition der FB1 produktion bei 50 μM.

In general, chromatographic logP refers to lipophilicity estimated from chromatographic retention. Consider `CC(C)n1cc(-c2ccncc2)c(-c2c(F)cccc2F)n1` [Compound 14], for which the pest or weed control at 500 ppm with Sphaerotheca fuliginea [1] was 80%; in data set [2], 88%; with Botrytis cinerea [3], 100%. Moreover, the chromatographic logP in the data set “physchem” (setting [9]) came to 1.4.
The like results for `Fc1cccc(F)c1-c1c(-c2ccncc2)cnn1C1CCCC1` [Compound 17] were, in that order, 80%, 88%, 83% and 1.74.
`CCC(=O)Nc1cc(-c2cn(C(C)CC)nc2-c2ccc(F)cc2)ccn1` (stereo not drawn) [Compound 164]: the pest or weed control at 1000 ppm in the data set with Leptosphaeria nodorum came out at 93%; in the data set with Septoria tritici, 100%; in data set [4], 100%; in the data set on Rhynchosporium secalis it was 100%; with Fusarium graminearum [7], 100%. Also, the inhibition at 50 µM in the data set with Fusarium graminearum [5] (setting [10]) worked out at 100%; with Fusarium graminearum [5] (setting [11]), 99%; in the data set on Fusarium proliferatum (setting [12]) it was 97%; with Fusarium proliferatum (setting [13]), 100%. The pest or weed control at 100 ppm in the data set with Venturia inaequalis worked out at 97%. Also, the pest or weed control at 500 ppm in the data set on Sphaerotheca fuliginea [6] was 100%; with Alternaria solani it was 95%. Also, the chromatographic logP in the data set “physchem” (setting [9]) turned out to be 2.46.
`CC(C)Cn1cc(-c2ccnc(N)n2)c(-c2ccc(F)cc2)n1` [Compound 184]: the pest or weed control at 1000 ppm was determined as 88% in the data set with Leptosphaeria nodorum; 100% in the data set with Septoria tritici; 100% in [4]; 71% in the data set on Rhynchosporium secalis; 100% with Fusarium graminearum [7]. Moreover, in the data set with Botrytis cinerea [8], the pest or weed control at 250 ppm worked out at 100%. Further, in the data set with Venturia inaequalis, the pest or weed control at 100 ppm amounted to 92%. The pest or weed control at 500 ppm with Sphaerotheca fuliginea [6] and with Alternaria solani was 95% throughout. The compound also showed a chromatographic logP in the data set “physchem” (LogPA) of 1.81.
Regarding `CC(C)n1cc(-c2ccnc(NC(=O)[C@H](C)O)c2)c(-c2ccc(F)cc2)n1` [Compound 192], the pest or weed control at 1000 ppm came out at 86% in the data set on Leptosphaeria nodorum; 100% with Septoria tritici; 100% in [4]; 71% in the data set with Rhynchosporium secalis; 100% with Fusarium graminearum [7]. Besides, the pest or weed control at 250 ppm with Botrytis cinerea [8] worked out at 100%. Moreover, the pest or weed control at 100 ppm in the data set with Venturia inaequalis was found to be 95%; with Plasmopara viticola, 94%. The pest or weed control at 500 ppm in the data set with Sphaerotheca fuliginea [6] came to 85%; in the data set on Alternaria solani, 100%. In the data set “physchem” (LogPA), this compound registered a chromatographic logP of 2.14.
On to `CCC(=O)Nc1cc(-c2cn(CC3CC3)nc2-c2ccc(F)cc2)ccn1` [Compound 214], for which the pest or weed control at 1000 ppm was found to be 71% in the data set on Leptosphaeria nodorum; 100% with Septoria tritici; 100% in [4]; 100% with Rhynchosporium secalis; 100% with Fusarium graminearum [7]. Further, in the data set on Botrytis cinerea [8], the pest or weed control at 250 ppm is 100%. Moreover, the inhibition at 50 µM in the data set with Fusarium graminearum [5] (setting [10]) stood at 100%; in the data set with Fusarium graminearum [5] (setting [11]), 93%; in the data set with Fusarium proliferatum (setting [12]) it was 96%; in the data set with Fusarium proliferatum (setting [13]), 100%. In addition, the pest or weed control at 100 ppm in the data set with Venturia inaequalis and with Plasmopara viticola was 88% each time. Further, the results for the pest or weed control at 500 ppm with Sphaerotheca fuliginea [6] and with Alternaria solani were 100% and 95%, respectively. Moreover, the chromatographic logP in the data set “physchem” (LogPA) came to 2.2.
`CCC(=O)Nc1cc(-c2cn(CC(F)F)nc2-c2ccc(F)cc2)ccn1` [Compound 215]: the pest or weed control at 1000 ppm in the data set on Leptosphaeria nodorum came to 71%; with Septoria tritici, 94%; in [4] it was 100%; with Rhynchosporium secalis it was 90%; in the data set with Fusarium graminearum [7], 100%. Moreover, in the data set with Botrytis cinerea [8], the pest or weed control at 250 ppm worked out at 98%. Also, the inhibition at 50 µM is 94% with Fusarium proliferatum (setting [12]) and 100% with Fusarium proliferatum (setting [13]). The pest or weed control at 100 ppm with Venturia inaequalis amounted to 96%. Further, the pest or weed control at 500 ppm amounted to 100% in the data set on Sphaerotheca fuliginea [6] and 94% with Alternaria solani. This compound returned a chromatographic logP in the data set “physchem” (LogPA) of 1.99.
As to `CC(C)C(=O)Nc1cc(-c2cn(CC(F)F)nc2-c2ccc(F)cc2)ccn1` [Compound 218], the pest or weed control at 1000 ppm with Leptosphaeria nodorum worked out at 93%; with Septoria tritici, 100%; in [4] it was 92%; in the data set with Rhynchosporium secalis, 100%; in the data set on Fusarium graminearum [7] it was 100%. Further, the pest or weed control at 250 ppm in the data set with Botrytis cinerea [8] is 98%. For the same compound, the inhibition at 50 µM in the data set on Fusarium proliferatum (setting [12]) turned out to be 79%; in the data set with Fusarium proliferatum (setting [13]), 100%. The pest or weed control at 100 ppm with Venturia inaequalis was 95%. In addition, the pest or weed control at 500 ppm with Sphaerotheca fuliginea [6] was 100%; with Alternaria solani, 95%. For the same compound, the chromatographic logP in “physchem” (LogPA) is 2.29.
